How the values were obtained:
A549 cells = experiment: cells; assay type: cell-based; details: Homo sapiens, A549, read-out: median LC50
Procedure: The paclitaxel-resistant cell lines MES-SA^DX5 and A549^TR were transfected with a scrambled non-targeting miRNA (control) and an miR-135a mimic (mimic), respectively. Cells were subsequently treated with 100 nM paclitaxel and cell viability was assessed using the MTT assay (FIGS. 2A, 2B). The percentage of apoptotic cells was assessed by Annexin V-staining and FACS analysis (FIGS. 2C, 2D). Values are presented as percent cell survival in paclitaxel-treated cells relative to untreated cells. *P<0.05, **P<0.001 as determined by Wilcoxon's rank sum test.
FIGS. 4A-4E are a series of micrographs and line graphs showing that miR-135a-mediated APC suppression contributes to paclitaxel resistance. […] Transfected A549 (FIG. 4B) and MES-SA (FIG. 4C) cells were treated with paclitaxel and viability was assessed using the MTT assay. […] (FIG. 4E) Both A549-shCON and -shAPC cells were treated with paclitaxel and cell viability was measured using the MTT assay. […]
(FIG. 7A). The parental A549 cells, a cell line that became refractory during in vivo treatment with paclitaxel (T20.2 round 1) and the same cell line established after yet another round of in vivo paclitaxel treatment (T20.2 reinjection) were treated with paclitaxel and cell viability was assessed using the MTT assay. […] (FIG. 7B) The expression of miR-135a was examined in these cells by qRT-PCR. *P<0.05 as determined by Wilcoxon's rank sum test. […]

A549 control cells = experiment: Xenograft of A549 control cells, paclitaxel treatment; assay type: in vivo, nude mice; details: paclitaxel three times a week for 3 weeks; P<0.001
Procedure: (§1) A549 cells stably expressing either non-targeting premiR (A549-control) or premiR-135a (A549-miR-135a) were generated. (FIG. 8A) miR-135a expression level in A549-control and -miR-135a was determined and compared with A549 and A549TR cells using qRT-PCR analysis. *P<0.01. (FIG. 8B) Paclitaxel response of A549-control and A549-premiR-135a cells was determined using the MTT assay. (FIG. 8C) APC protein expression was examined using western blot analysis in A549-control and -premiR-135a cells. (FIG. 8D) A549-control and -premiR-135a cells were inoculated subcutaneously into the flanks of nude mice. Paclitaxel treatment was given three times a week for 3 weeks. The tumor size in each group was measured during the course of treatment and was calculated, relative to the size before treatment initiation. Each curve represents the average tumor growth±s.e.m. for 10 mice per group. **P<0.001 as determined by Wilcoxon's rank sum test.
(§2) The inventors subsequently investigated the role of miR-135a in paclitaxel sensitivity in vivo. […] As expected, miR-135a […] attenuated paclitaxel-induced cell death (FIG. 8B) and APC protein expression (FIG. 8C) relative to control transfected A549 cells in vitro. […] Paclitaxel treatment was given three times a week for 3 weeks, and tumor size in each group was monitored during the course of treatment. […]

[1] = test system: A549 cells overexpressing miR-135a; experiment: Xenograft of A549 cells stably overexpressing miR-135a, paclitaxel treatment; assay type: in vivo, nude mice; details: paclitaxel three times a week for 3 weeks
Procedure: as §1, §2

CC(=O)O[C@H]1C(=O)[C@@]2(C)[C@H]([C@H](OC(=O)c3ccccc3)[C@]3(O)C[C@H](OC(=O)[C@H](O)[C@@H](NC(=O)c4ccccc4)c4ccccc4)C(C)=C1C3(C)C)[C@]1(OC(C)=O)CO[C@@H]1C[C@@H]2O [paclitaxel]
CC50 (A549 cells): 1.14 nM
reduction of relative tumor burden at the end of the experiment (A549 control cells): 5 fold
in vivo growth under paclitaxel exposure [1]: not reduced
